# Reference: patent US20240300894A1, “PRODRUGS OF KV7 CHANNEL OPENERS” (Xyzagen, Inc., priority 2021, published 2024)
# Tests used:
# [1] = Pharmacokinetics of ezogabine prodrugs in mouse (SC, PO); conditions: male mice, PO 20 mg/kg, plasma
# Experimental: (§1) Blood was diluted by 10% with these stabilizers.
# (§2) Extraction of the molecules was conducted by taking a 50 uL aliquot of plasma and adding 200 uL of acetonitrile containing 200 ng/mL tolbutamide as the internal standard. Samples were precipitated in a 96 well plate, centrifuges and an aliquot transferred to a new plate, dried down under heat and nitrogen and then reconstituted in the initial mobile phase conditions of the LC-MS/MS method. […] A standard curve was prepared from 5000 ng/mL to 1 ng/mL for each analyte. Concentration data from the bioanalytical run was analyzed by Phoenix Winnonlin version 8 for noncompartmental sparse sampling PK analysis, plotting of concentration time curves and tabulation of PK parameters.
# Animals were asphyxiated by carbon dioxide gas, blood was collected by cardiac stick and they were euthanized by cervical dislocation.
# [2] = Pharmacokinetics of ezogabine prodrugs in rat (IV, IM, PO); conditions: male Sprague Dawley rats, PO 20 mg/kg
# Experimental: as §1
# as §2, with “noncompartmental” for “noncompartmental sparse sampling”
# 150 uL of blood were collected at predesignated time points. At completion of the study animals were asphyxiated by carbon dioxide gas and exsanguinated for euthanasia.
# [3] = Acid and organic solution stability, HPLC-UV 250 nm; conditions: for Colour of solution: by Day 9; for Degradation / conversion to ezogabine in solution: up to 3 weeks, acidic solutions and organic solvents; for Ezogabine Area: room temp., normal light
# Experimental: An HPLC-UV Vis method was developed using 0.1% Formic acid in water as mobile phase A and 0.1% Formic acid in acetonitrile as mobile Phase B. A gradient method was developed ramping from 10% A to 90% B over 8 minutes and then returning to 10% A at 8.5 minutes on a 4.6×50 mm Zorbax C-18 column. Injections of 10 uL of stability solutions were injected for analyte detection.
# […] Aliquots were collected at serial time points and then diluted to a nominal concentration of 100 ug/mL for injection to the HPLC and 250 nm monitored by the diode array detector. Data at approximately 10 days is presented.
# Aliquots were collected at serial time points and then diluted to a nominal concentration of 100 ug/mL for injection to the HPLC and 250 nm monitored by the diode array detector.
# (§3) It was also evaluated at 2 N HCl at 37° C. Aliquots were collected at serial time points and then diluted to a nominal concentration of 100 ug/mL for injection to the HPLC and 250 nm monitored by the diode array detector.
# as §3, §3, §3
# [4] = in solvent, exposed to light; known; cited from earlier work
# [5] = human, in vivo; cited from earlier work
# [6] = Benchtop solution stability exposed to light, HPLC-UV 230 nm; format: physicochemical
# Experimental: Compounds in solvent were left on the benchtop exposed to light for up to 7 days since it is known that Compound 1 will degrade with light within 3-7 days.
# Stability was assessed by taking an aliquot from the solubility vials at each test day. A single replicate was injected for each test condition.
# Samples were injected onto an HPLC system with an aqueous mobile phase and acetonitrile organic phase and compounds were separated on a C8 50×2 mm column. Wavelength 230 nm was monitored for absorption and integrated for peak area while the mass spectrometer was used to confirm mass. Samples were tested on Day 1 and on subsequent days through Day 7.
# [7] = Drug concentration analysis after MES in CF-1 mice; conditions: for Plasma concentration of Compound 1 relative to administration of Compound 1 alone: CF-1, mouse, in vivo, ip
# Source text: (§4) Each male CF-1 mouse provided one data point in the MES assay and one data point in the concentration analysis. There were 8 mice per time point.
# [8] = system: CCI model of neuropathic pain; experiment: CCI model of neuropathic pain (pin prick, von Frey); format: in vivo, rat; conditions: male Sprague Dawley rats
# Experimental: Compound 3 was tested for reversal of mechanical hypersensitivity to the pin prick test for hindlimb paw withdraw and the von Frey hairs for gram force mechanical allodynia in the CCI model of neuropathic pain. Male Sprague Dawley rats (n=8/group) were tested for baseline sensitivity on Day 1 (ipsilateral and contralateral paws) and administered XYG-203 orally; 40 mg/kg on Day 1, 20 mg/kg Day 3, 10 mg/kg Day 5, 5 mg/kg Day 7, 1 mg/kg Day 10 and baseline on Day 12. Mechanical hypersensitivity was tested 1 h after pretreatment. Data (mean±SD) were analyzed with a repeated measures ANOVA with Dunnet's adjustment for multiple comparisons.
# [9] = Rat PK at equimolar dose to Ezogabine in 0.5% methylcellulose; conditions: for AUClast/D, analyte = dosed prodrug: male, rat, in vivo, 20 mg/kg; for Exposure of ezogabine compared with ezogabine itself (dose normalized AUC): rats, equimolar dose to Ezogabine (20 mg/kg)
# Experimental: (§5) Blood samples were collected at the same time points over 24 hours to generate a concentration time profile. Two male rats were dosed per group. Plasma samples were analyzed by LC/MS/MS and the resulting concentration time profiles and PK parameters are provided.
# as §5, §5
# [10] = rat, 6 h, 1000 ng/mL
# Experimental: Plasma was collected by the biomaterial vendor and kept frozen at −20° C.
# The samples were analyzed by HPLC separation and mass spectrometry detection for prodrug amount, relative to a baseline time 0 control sample. Triplicate samples were generated at each time point and the peak area response was averaged and converted to a percent of baseline control.
# [11] = system: MES Induced Seizures; experiment: Maximal electroshock (MES) test in SD rats; format: in vivo, rat; conditions: IM 75 mg/kg
# Experimental: All treatments were at 0.083, 0.25, 0.5, 1, 2, 4, and 8 hours prior to the administration of MES test, where 6 seconds where 6 seconds without a seizure was considered protected.
# [12] = system: 5% formalin intraplantar injection; experiment: Formalin inflammatory model (hind paw flicks/licks); format: in vivo, mouse; conditions: 100 mg/kg in water SC 30 minutes before 5% formalin; both phases (0-10 min, 15-40 min)
# Experimental: Compound 4 was assessed in the rat formalin inflammatory model. The number of flicks/licks of a male CD-1 mouse in the acute phase 0-10 minute and the inflammatory phase from 15-40 min after intraplantar administration of 50 μL of 5% formalin was recorded. […] Data is presented over the duration of the observation periods in 2 minute bins.
# [13] = system: MES induced seizures; experiment: Maximal electroshock (MES) test in CF-1 mice; format: in vivo, mouse; conditions: IP 1.5, 3, 6, 12 and 24 mg/kg
# Experimental: All treatments were administered 30 minutes prior to MES, except for Phenytoin which was administered 1 h prior.
# as §4
smiles,measurement,setting,value
"CCOC(=O)Nc1ccc(NCc2ccc(F)cc2)cc1N [Compound 1, Ezogabine]","Cmax/D, analyte Cmpd 1",[1],148 ng/mL/mg/kg
same,"AUClast/D, analyte Cmpd 1",[1]; AUClast 6 h,190 ng·h/mL/mg/kg
same,"Cmax/D, analyte Cmpd 1",[2],44.8 ng/mL/mg/kg
same,"AUClast/D, analyte Cmpd 1",[2]; AUClast […] h,280 ng·h/mL/mg/kg
same,Day by which solution was turning light purple (indicating degradation),"[3]; 5 mg/mL, acid solutions, room temperature",up to 2 Day
same,Day at which solution began turning purple,"[3]; 5 mg/mL, organic solvent solutions, room temperature",≥ 7 days
same,Time within which compound degrades with light,[4],3 to 7 days
same,Adverse reaction rate: abnormal coordination,[5],7%
same,Adverse reaction rate: aphasia,[5],4%
same,Adverse reaction rate: asthenia,[5],5%
same,Adverse reaction rate: balance disorder,[5],4%
same,Adverse reaction rate: blurred vision,[5],5%
same,Adverse reaction rate: confusional state,[5],9%
same,Adverse reaction rate: diplopia,[5],7%
same,Adverse reaction rate: disturbance in attention,[5],6%
same,Adverse reaction rate: dizziness,[5],23%
same,Adverse reaction rate: dysarthria,[5],4%
same,Adverse reaction rate: fatigue,[5],15%
same,Adverse reaction rate: gait disturbance,[5],4%
same,Adverse reaction rate: memory impairment,[5],6%
same,Adverse reaction rate: somnolence,[5],22%
same,Adverse reaction rate: tremor,[5],8%
same,Adverse reaction rate: vertigo,[5],8%
CCOC(=O)Nc1ccc(NCc2ccc(F)cc2)cc1NC(=O)OC(C)OC(=O)C(C)C (stereo not shown) [Compound 3],Stability in solvent,"[6]; 0.1 N HCl, over 4 days",appears to be stable
same,Stability in solvent,[6]; ethanol and methanol,stable through 3 days
same,Plasma concentration of Compound 1 relative to administration of Compound 1 alone,[7],5.5 fold
same,Mechanical hypersensitivity versus baseline,[8]; oral 5 mg/kg,95% confidence intervals did not cross the baseline mean
same,Gram force to paw lift (von Frey),"[8]; oral 40 mg/kg, 1 h after pretreatment",increased the gram force to paw lift significantly
same,Reduction of latency of neuropathic ipsilateral paw withdrawal (pin prick),"[8]; oral 40 mg/kg, 1 h after pretreatment, p=0.0003",9.2 s
same,"AUClast/D, analyte = dosed prodrug",[9],0.0136 ng·h/mL/mg/kg
same,Colour of solution,"[3]; 5 mg/mL, 0.1 N HCl",turned a light tan
same,Colour of solution,"[3]; 5 mg/mL, 1 N HCl",turned a golden yellow
same,Solution clear and colorless through,"[3]; 5 mg/mL, organic solvents",≥ 18 days
same,Degradation / conversion to ezogabine in solution,[3]; 5 mg/mL,converts to ezogabine under acidic conditions but does not in organic solvent
same,Ezogabine Area,"[3]; 0.1N HCl, 433 h",400 mAU
same,Ezogabine Area,"[3]; Acetonitrile, 435 h",51 mAU
same,Ezogabine Area,"[3]; Ethanol, 390 h",43 mAU
same,Ezogabine Area,"[3]; Methanol, 435 h",41 mAU
CCOC(=O)Nc1ccc(NCc2ccc(F)cc2)cc1NC(=O)[C@@H](N)CCCCN [Compound 4],Stability in plasma,[10],stable through 6 hours
same,Plasma concentration of Compound 1 relative to administration of Compound 1 alone,[7],9 fold
same,Protection from MES seizures,[11]; 2 through 8 hours post dose,fully protected
same,Protection from MES seizures,[11]; 1 h post dose,almost fully protected
same,"AUClast/D, analyte = dosed prodrug",[9],6.26 ng·h/mL/mg/kg
same,Exposure of ezogabine compared with ezogabine itself (dose normalized AUC),[9],similar
same,Reduction in behavioral response (flicks/licks) compared to vehicle,[12],50%
same,Solution remained clear and colorless through,"[3]; 5 mg/mL, all test solutions",≥ 18 days
same,Degradation / conversion to ezogabine in solution,[3]; 5 mg/mL,very little degradation to ezogabine
same,Ezogabine Area,"[3]; 0.1N HCl, 269 h",0 mAU
same,Ezogabine Area,"[3]; 1N HCl, 269 h",0 mAU
same,Ezogabine Area,"[3]; 2N HCl, 269 h",38 mAU
same,Ezogabine Area,"[3]; Methanol, 437 h",0 mAU
same,Ezogabine Area,"[3]; PBS, 435 h",0 mAU
CCOC(=O)Nc1ccc(NCc2ccc(F)cc2)cc1NC(=O)[C@H](N)CO [Compound 6],"AUClast/D, analyte = dosed prodrug",[9],199 ng·h/mL/mg/kg
same,Exposure of ezogabine compared with ezogabine itself (dose normalized AUC),[9],similar
same,Solution remained clear and colorless through,"[3]; 5 mg/mL, all test solutions",≥ 18 days
same,Degradation / conversion to ezogabine in solution,[3]; 5 mg/mL,very little degradation to ezogabine
same,Ezogabine Area,"[3]; 1N HCl, 437 h",58 mAU
CCOC(=O)Nc1ccc(NCc2ccc(F)cc2)cc1NC(=O)C[C@@H](CN)CC(C)C [Compound 28],Complete protection against MES induced seizures,[13],None of the doses showed complete protection
same,Concentration of prodrug relative to ezogabine,"[7]; CF-1 mice, IP, 30 minutes",present at higher concentrations than ezogabine
same,"AUClast/D, analyte = dosed prodrug",[9],83.0 ng·h/mL/mg/kg
same,Exposure of ezogabine compared with ezogabine itself (dose normalized AUC),[9],lower exposure
same,Solution remained clear and colorless through,"[3]; 5 mg/mL, acidic solutions",≥ 18 days
same,Solution remained clear and colorless through,"[3]; 5 mg/mL, acidic solutions and acetonitrile",≥ 11 days
same,Degradation / conversion to ezogabine in solution,[3]; 5 mg/mL,degradation to ezogabine with increasing strength of the acidic solution
same,Ezogabine Area,"[3]; 0.1N HCl, 440 h",0 mAU
same,% Remaining,"[3]; 440 h, 5 mg/mL",92.0%
same,Ezogabine Area,"[3]; Methanol, 440 h",0 mAU
